How the values were obtained:
[1] = test system: agrégation plaquettaire provoquée in vitro par l'ADP; experiment: ADP-induced platelet aggregation in vitro in platelet-rich rat plasma; assay type: cell-based; details: plasma de rat enrichi en plaquettes
[2] = test system: torsions à la phénylbenzoquinone chez la souris; experiment: Phenylbenzoquinone writhing test (analgesic activity); assay type: in vivo; details: dose de 12,5 mg/kg, 24 heures après son administration
Experimental: L'activité analgésique des composés de formule 1 a été mise en évidence dans le test des torsions à la phénylbenzoquinone chez la souris. Ainsi, l'acide de formule 1 (racémique) possède dans ce test une DE50 de 3 à 6 mg/kg P.O. Cette activité analgésique est prolongée dans le temps, une dose de 12,5 mg/kg de ce composé entraînant encore une analgésie de 42%, 24 heures après son administration.

Solubility in water = assay type: physicochemical
Experimental: Le sel de pyrrolidine de l'acide (phényl-2 benzothiazolyl-6)-2 propionique est préparé par action d'I g d'amine sur 4 g d'acide en solution dans le méthanol. Il fond à 142°C.

[3] = test system: biosynthèse des prostaglandines; experiment: Protection against arachidonic acid toxicity (lethal dose) in mice; assay type: in vivo, souris

CC(C(=O)O)c1ccc2nc(-c3ccccc3)sc2c1 (racemic)
concentration active par rapport à l'acide acétyl salicylique [1]: actif à une concentration dix fois plus faible que l'acide acétyl salicylique

CC(C(=O)O)c1ccc2nc(-c3ccccc3)sc2c1 (racemic) [Exemple 1, acide (phényl-2 benzothiazolyl-6)-2 propionique]
analgésie [2]: 42%

CC(C(=O)O)c1ccc2nc(-c3ccccc3)sc2c1 (racemic) [Exemple 3, (phényl-2 benzothiazolyl-6)-2 propionate de sodium]
solubilité dans l'eau (Solubility in water): soluble dans l'eau | activité contre la toxicité de l'acide arachidonique ([3]; voie intraveineuse, same doses (0,5 mg/kg)): actifs aux mêmes doses

CC(C(=O)O)c1ccc2nc(-c3ccccc3)sc2c1 (racemic) [Exemple 4, sel de pyrrolidine de l'acide (phényl-2 benzothiazolyl-6)-2 propionique]
solubilité dans l'eau (Solubility in water): soluble dans l'eau

CC(C(=O)O)c1ccc2nc(-c3ccccc3)sc2c1 (single isomer, unassigned) [Exemple 8a, acide (phényl-2 benzothiazolyl-6)-2 propionique]
activité contre la toxicité de l'acide arachidonique, comparison of enantiomers and racemate ([3]; route not stated for the comparison): activité comparable à celle du racémique (exemple 1), et supérieure à celle de son homologue lévogyre
